The results in this text go back to patent US20210393623A1 (Jacobio Pharmaceuticals Co., Ltd., priority 2018, published 2021).

The experiment addresses T1, SHP2 (Homo sapiens, UniProt Q06124).
T1 sequence (Q06124 1-593): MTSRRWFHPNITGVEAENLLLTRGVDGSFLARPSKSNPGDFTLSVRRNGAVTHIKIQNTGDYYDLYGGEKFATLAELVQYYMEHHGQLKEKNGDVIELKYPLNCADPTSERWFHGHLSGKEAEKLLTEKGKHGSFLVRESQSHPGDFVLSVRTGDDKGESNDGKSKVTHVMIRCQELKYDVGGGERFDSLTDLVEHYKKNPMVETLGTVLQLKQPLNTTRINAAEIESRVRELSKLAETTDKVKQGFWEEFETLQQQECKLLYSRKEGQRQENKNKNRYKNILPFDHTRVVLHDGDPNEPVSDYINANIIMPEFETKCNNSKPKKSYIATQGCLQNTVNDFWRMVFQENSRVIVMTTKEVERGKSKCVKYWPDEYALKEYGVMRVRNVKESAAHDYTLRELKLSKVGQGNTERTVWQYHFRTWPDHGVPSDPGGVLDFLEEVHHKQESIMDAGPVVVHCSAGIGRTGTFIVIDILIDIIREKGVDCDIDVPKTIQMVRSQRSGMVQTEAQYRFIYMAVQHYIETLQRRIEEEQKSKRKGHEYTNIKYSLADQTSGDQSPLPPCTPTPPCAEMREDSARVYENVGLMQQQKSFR
Briefly: Phosphatase Assay (Single Dose Inhibition). Type of experiment: biochemical. Conditions: compound at 0.02 μM (20nM); DiFMUP substrate 12 μM; SHP2 0.5 nM activated with dPEG8 peptide; DMSO control set to 100%; triplicate. The procedure:
Phosphatase Assay (Single Dose Inhibition) Assay Protocol: For single dose inhibition assays using 6,8-difluoro-4-methylumbelliferyl phosphate (DiFMUP) as a substrate, SHP2 samples (diluted to 0.5 nM in reaction buffer) were incubated with dPEG8 peptide for 30 min in reaction buffer[60 mM 3,3-dimethyl glutarate (pH7.2), 75 mM NaCl, 75 mM KCl, and 1 mM EDTA, 0.05% Tween 20, 2mM dithiothreitol (DTT) ] to active the PTP. DMSO [0.5% (v/v)] or compounds (20nM) were added to the mixture and incubated for 30 min at room temperature. Reactions were initiated by the addition of DiFMUP (12 μM; total reaction volume of 100 μL), and the fluorescence (excitation at 340 nm, emission at 450 nm) of the resulting solutions was measured on a 2104-0020 EnVision Xcite Multilabel Reader (PerkinElmer) after 30min. The experiment is carried out in triplicate. The value for the control sample (DMSO) was set to 100%, and the values for the compound-treated samples were expressed as activity relative to the control sample.

The molecule `Cn1c(N2CCC3(CC2)Cc2ccccc2[C@H]3N)nc(N)c(Sc2ccnc(N)c2Cl)c1=O` [Example 40] displayed an inhibition at 0.02 µM of 68%.

As for `Cc1cccc(-c2ncc(N3CCC4(CC3)Cc3ccc(Br)cc3[C@H]4N)nc2N)c1Cl` [Example 45, (S)-1′-(6-amino-5-(2-chloro-3-methylphenyl)pyrazin-2-yl)-6-bromo-1,3-dihydrospiro[indene-2,4′-piperidin]-1-amine], at 0.02 µM the inhibition was 78%. The same measure, in the same setting: in the case of `Cc1cccc(-c2ncc(N3CCC4(CC3)Cc3ccc(N)cc3[C@H]4N)nc2N)c1Cl` [Example 47, (S)-1′-(6-amino-5-(2-chloro-3-methylphenyl)pyrazin-2-yl)-1,3-dihydrospiro[indene-2,4′-piperidine]-1,6-diamine] it was 56%. For the molecule `N[C@@H]1c2ccccc2CC12CCN(c1cnc3c(N4CCCc5ncccc54)n[nH]c3n1)CC2` [Example 50, (S)-1′-(3-(3,4-dihydro-1,5-naphthyridin-1(2H)-yl)-1H-pyrazolo[3,4-b]pyrazin-6-yl)-1,3-dihydrospiro[indene-2,4′-piperidin]-1-amine], testing at 0.02 µM gave an inhibition of 86%. With “ethyl (S)-3-(1-amino-1,3-dihydrospiro[indene-2,4′-piperidin]-1′-yl)-6-(2,3-dichlorophenyl)-5--2-carboxylate [Example 1]”, the “SHP2 inhibition(%)” value stood at 82%.
